Assays:
VCAM1 = type: cell-based, mouse; conditions: b.End.3 cells, 1 µg/ml LPS, peptide 1 µg/ml added 8 hours after stimulation, for 60 h, flow cytometry, n = 6 technical replicates
A/Hessen/1/2003 (H3N2) = test: Screening of antiviral activity in MDCK II cells, H3N2; type: cell-based, influenza virus; conditions: for antiviral effect: MOI 0.001, 48 h, CellTiter-Glo, normalized to aprotinin = 100%; for antiviral efficacy compared among the tested atropopeptides: statement made for the four strains together
MDCK II cells = conditions: 100 µM, 48 h, CellTiter-Glo
ICAM1 = type: cell-based, mouse; conditions: b.End.3 cells, 1 µg/ml LPS, peptide 1 µg/ml added 8 hours after stimulation, for 60 h, flow cytometry, n = 6 technical replicates
[1] = test system: A/Hamburg/05/2009 (H1N1pdm); test: Screening of antiviral activity in MDCK II cells, H1N1pdm; type: cell-based, influenza virus; conditions: for antiviral effect: MOI 0.001, 48 h, CellTiter-Glo, normalized to aprotinin = 100%; for antiviral efficacy compared among the tested atropopeptides: statement made for the four strains together
[2] = test system: B/Massachusetts/71 (Massachusetts/B); test: Screening of antiviral activity in MDCK II cells, Massachusetts/B; type: cell-based, influenza virus; conditions: for antiviral effect: MOI 0.001, 48 h, CellTiter-Glo, normalized to aprotinin = 100%; for antiviral efficacy compared among the tested atropopeptides: statement made for the four strains together
[3] = test system: B/Malaysia/2506/2004 (Malaysia/B); test: Screening of antiviral activity in MDCK II cells, Malaysia/B; type: cell-based, influenza virus; conditions: for antiviral effect: MOI 0.001, 48 h, CellTiter-Glo, normalized to aprotinin = 100%; for antiviral efficacy compared among the tested atropopeptides: statement made for the four strains together

Substance: H-WYIW-OH (also: sidechain bridge or staple (positions not given here)) [compound 1, scabrirubin CB-1, cyclic tetrapeptide from S. albus/pUWL-LauA + ScaB, C–N biaryl crosslink between Trp-1 and Trp-4]
- VCAM1 expression (mean fluorescence intensity) (VCAM1): unchanged
- antiviral effect (A/Hessen/1/2003 (H3N2)): dose-dependent antiviral effect
- antiviral efficacy compared among the tested atropopeptides (A/Hessen/1/2003 (H3N2)): comparable antiviral efficacies
- cytotoxicity toward MDCK II cells (cell viability, ATP) (MDCK II cells): did not show cytotoxicity
- ICAM1 expression (mean fluorescence intensity) (ICAM1): slight reduction
- antiviral effect [1]: dose-dependent antiviral effect
- antiviral efficacy compared among the tested atropopeptides [1]: comparable antiviral efficacies
- antiviral effect [2]: dose-dependent antiviral effect
- antiviral efficacy compared among the tested atropopeptides [2]: comparable antiviral efficacies
- antiviral effect [3]: dose-dependent antiviral effect
- antiviral efficacy compared among the tested atropopeptides [3]: comparable antiviral efficacies

Substance: H-WYQWL-OH (also: sidechain bridge or staple (positions not given here)) [compound 3, scabrirubin CB-3, cyclic pentapeptide from S. albus/pUWL-SvaA + ScaB with C–N biaryl crosslink]
- VCAM1 expression (mean fluorescence intensity) (VCAM1): significantly reduced
- antiviral effect (A/Hessen/1/2003 (H3N2)): dose-dependent antiviral effect
- antiviral efficacy compared among the tested atropopeptides (A/Hessen/1/2003 (H3N2)): slightly reduced activity
- cytotoxicity toward MDCK II cells (cell viability, ATP) (MDCK II cells): did not show cytotoxicity
- ICAM1 expression (mean fluorescence intensity) (ICAM1): significantly reduced
- antiviral effect [1]: dose-dependent antiviral effect
- antiviral efficacy compared among the tested atropopeptides [1]: slightly reduced activity
- antiviral effect [2]: dose-dependent antiviral effect
- antiviral efficacy compared among the tested atropopeptides [2]: slightly reduced activity
- antiviral effect [3]: dose-dependent antiviral effect
- antiviral efficacy compared among the tested atropopeptides [3]: slightly reduced activity

Substance: scabrirubin [reference compound]
- VCAM1 expression (mean fluorescence intensity) (VCAM1): slightly elevated
- antiviral effect (A/Hessen/1/2003 (H3N2)): dose-dependent antiviral effect
- antiviral efficacy compared among the tested atropopeptides (A/Hessen/1/2003 (H3N2)): comparable antiviral efficacies
- cytotoxicity toward MDCK II cells (cell viability, ATP) (MDCK II cells): did not show cytotoxicity
- ICAM1 expression (mean fluorescence intensity) (ICAM1): slight reduction
- antiviral effect [1]: dose-dependent antiviral effect
- antiviral efficacy compared among the tested atropopeptides [1]: comparable antiviral efficacies
- antiviral effect [2]: dose-dependent antiviral effect
- antiviral efficacy compared among the tested atropopeptides [2]: comparable antiviral efficacies
- antiviral effect [3]: dose-dependent antiviral effect
- antiviral efficacy compared among the tested atropopeptides [3]: comparable antiviral efficacies

Reference: article PMC12352619, “Phylogeny-guided discovery of a promiscuous P450 macrocyclase for the production of diverse atropopeptides” (Chemical Science, 2025)
